# Reference: US11779628B2, “Use of cell-permeable peptide inhibitors of the JNK signal transduction pathway for the treatment of various diseases” (Xigen Inflammation Ltd., priority 2014, dated 2023)
# Legend:
# [1] = tested on: gerbil, transient global ischemia; settings: Carboni et al. 2004; cited from earlier work
# [2] = tested on: primary embryonic cultures and differentiated PC12 cells; settings: after trophic withdrawal; cited from earlier work
# [3] = tested on: Sprague-Dawley rats, STZ; test: Rat model of diabetic nephropathy (STZ, high fat diet); type: in vivo; settings: XG-102 1, 2, 4 mg/kg iv weekly; Losartan 25 mg/kg po daily; 9 weeks
# Source text: Losartan has been used as a positive control. Seventy-four male Sprague-Dawley rats (200-250 g; including 4 spare animals) from Charles River (Margate, Kent) were used. […] The diet has been purchased from Research Diets, New Jersey, USA. […] Animals have been housed in pairs throughout the study. […] During the third week of habituation, a blood sample has been taken from the lateral tail vein in the freely fed state using a hand-held glucose meter (One Touch Ultra 2). Blood sampling began at approximately 09:00. […] About 40 animals have been assigned to Cohort A and the remaining 30 to Cohort B, balanced as far as possible for body weight, plasma glucose and food and water intake. […] For the 7-day period post STZ dose, animals have been weighed daily and food and water intake determined twice weekly. For the remaining study duration, animals have been weighed and water and food intake assessed twice weekly (always on the day of intravenous dosing and typically on water refill day(s)). […] Animals have been weighed prior to dosing (this weight was recorded). Food and water have been recorded on the same days as the intravenous groups (A-E) only. […] Creatinine, glucose, urea, total protein and electrolytes (Na, K, Cl and Ca) have been determined on urine samples using a COBAS […] and associated reagents (n=2 for all urine analyses). […] Food consumed and water drunk has also been calculated. […]
structure (smiles),measurement,setting,value
N#CC(c1ccnc(NCCc2cccnc2)n1)c1nc2ccccc2s1 (stereo not drawn) [AS601245],delayed loss of hippocampal CA1 neurons,[1],provided significant protection against the delayed loss of hippocampal CA1 neurons
CCSCc1ccc2c(c1)c1c3c(c4c5cc(CSCC)ccc5n5c4c1n2[C@H]1C[C@](O)(C(=O)OC)[C@]5(C)O1)CNC3=O [CEP-1347],neuronal survival,[2],promotes neuronal survival at dosages that inhibit activation of the c-Jun amino-terminal kinases (JNKs)
CCCCc1nc(Cl)c(CO)n1Cc1ccc(-c2ccccc2-c2nn[nH]n2)cc1 [Losartan],body weight,[3],has been significantly lower
